Assay results reported in ChEMBL document CHEMBL3885861, “Open TG-GATES”.

Species: Rattus norvegicus
Assay: Open TG-GATES - Regimen: Single
Assay type: toxicity, organism-based, Sprague-Dawley
Parameters: regimen Single, gender Male, age 6 weeks
Settings: in vivo, po, 0 mg/kg, route gavage, dose level Control; for APTT / Bas / Eos / Fbg / Hb / Ht / Lym / MCH / MCHC / MCV / Mono / Neu / PT / Plat / RBC / Ret / WBC: tissue Blood; for KIDNEY_L / KIDNEY_R / KIDNEY_TOTAL: tissue Kidney; for LIVER: tissue Liver; for A/G / ALP / ALT / AST / BUN / CRE / Ca / Cl / DBIL / GLC / IP / K / LDH / Na / PL / RALB / TBIL / TC / TG / TP / gamma-GTP: tissue Plasma

SMILES: COc1ccc(Cl)cc1C(=O)NCCc1ccc(S(=O)(=O)NC(=O)NC2CCCCC2)cc1 [GLYBURIDE]
- TERMINAL_BW (3 h): 216 g
- APTT (3 h): 19.2 s
- Bas (3 h): 0%
- Eos (3 h): 1%
- Fbg (3 h): 221.2 mg/dL
- Hb (3 h): 13.2 g/dL
- Ht (3 h): 40.6%
- Lym (3 h): 70.4%
- MCH (3 h): 21 pg
- MCHC (3 h): 32.4%
- MCV (3 h): 64.7 fL
- Mono (3 h): 3%
- Neu (3 h): 24.4%
- PT (3 h): 12.3 s
- Plat (3 h): 125.5 x10_4/uL
- RBC (3 h): 628.8 x10_4/ul
- Ret (3 h): 8%
- WBC (3 h): 84.1 x10_2/uL
- KIDNEY_L (3 h): 1 g
- KIDNEY_R (3 h): 1 g
- KIDNEY_TOTAL (3 h): 1.9 g
- LIVER (3 h): 10.1 g
- A/G (3 h): 1.7
- ALP (3 h): 1085 IU/L
- ALT (3 h): 41.8 IU/L
- AST (3 h): 70.8 IU/L
- BUN (3 h): 11.8 mg/dL
- CRE (3 h): 0.4 mg/dL
- Ca (3 h): 11 mg/dL
- Cl (3 h): 104 meq/L
- DBIL (3 h): 0.2 mg/dL
- GLC (3 h): 191.6 mg/dL
- IP (3 h): 8.8 mg/dL
- K (3 h): 3.8 meq/L
- LDH (3 h): 166.6 IU/L
- Na (3 h): 141 meq/L
- PL (3 h): 187.6 mg/dL
- RALB (3 h): 3.5 g/dL
- TBIL (3 h): 0.2 mg/dL
- TC (3 h): 88 mg/dL
- TG (3 h): 160.2 mg/dL
- TP (3 h): 5.6 g/dL
- gamma-GTP (3 h): 0.8 IU/L
- TERMINAL_BW (6 h): 212.5 g
- APTT (6 h): 19.8 s
- Bas (6 h): 0%
- Eos (6 h): 1%
- Fbg (6 h): 228.6 mg/dL
- Hb (6 h): 13.6 g/dL
- Ht (6 h): 42.2%
- Lym (6 h): 70.2%
- MCH (6 h): 20.1 pg
- MCHC (6 h): 32.2%
- MCV (6 h): 62.4 fL
- Mono (6 h): 3.4%
- Neu (6 h): 24.2%
- PT (6 h): 12.5 s
- Plat (6 h): 122.5 x10_4/uL
- RBC (6 h): 676.8 x10_4/ul
- Ret (6 h): 7.8%
- WBC (6 h): 87.5 x10_2/uL
- KIDNEY_L (6 h): 1 g
- KIDNEY_R (6 h): 1 g
- KIDNEY_TOTAL (6 h): 2 g
- LIVER (6 h): 9.5 g
- A/G (6 h): 1.6
- ALP (6 h): 1140.4 IU/L
- ALT (6 h): 35 IU/L
- AST (6 h): 67.4 IU/L
- BUN (6 h): 8.8 mg/dL
- CRE (6 h): 0.4 mg/dL
- Ca (6 h): 10.9 mg/dL
- Cl (6 h): 103 meq/L
- DBIL (6 h): 0.092 mg/dL
- GLC (6 h): 207.2 mg/dL
- IP (6 h): 9.8 mg/dL
- K (6 h): 3.6 meq/L
- LDH (6 h): 159.4 IU/L
- Na (6 h): 141.2 meq/L
- PL (6 h): 148.6 mg/dL
- RALB (6 h): 3.5 g/dL
- TBIL (6 h): 0.2 mg/dL
- TC (6 h): 77.2 mg/dL
- TG (6 h): 65.2 mg/dL
- TP (6 h): 5.6 g/dL
- gamma-GTP (6 h): 1 IU/L
- TERMINAL_BW (9 h): 213.3 g
- APTT (9 h): 19.1 s
- Bas (9 h): 0%
- Eos (9 h): 1%
- Fbg (9 h): 220 mg/dL
- Hb (9 h): 13 g/dL
- Ht (9 h): 39.7%
- Lym (9 h): 77%
- MCH (9 h): 20.8 pg
- MCHC (9 h): 32.7%
- MCV (9 h): 63.6 fL
- Mono (9 h): 2.2%
- Neu (9 h): 18.8%
- PT (9 h): 12.7 s
- Plat (9 h): 133.8 x10_4/uL
- RBC (9 h): 625.4 x10_4/ul
- Ret (9 h): 8.1%
- WBC (9 h): 102.8 x10_2/uL
- KIDNEY_L (9 h): 0.9 g
- KIDNEY_R (9 h): 0.9 g
- KIDNEY_TOTAL (9 h): 1.9 g
- LIVER (9 h): 8.8 g
- A/G (9 h): 1.7
- ALP (9 h): 1066.8 IU/L
- ALT (9 h): 30.8 IU/L
- AST (9 h): 61.6 IU/L
- BUN (9 h): 10.8 mg/dL
- CRE (9 h): 0.4 mg/dL
- Ca (9 h): 10.1 mg/dL
- Cl (9 h): 102.2 meq/L
- DBIL (9 h): 0.09 mg/dL
- GLC (9 h): 216.2 mg/dL
- IP (9 h): 11.1 mg/dL
- K (9 h): 3.5 meq/L
- LDH (9 h): 125.8 IU/L
- Na (9 h): 140.8 meq/L
- PL (9 h): 137.4 mg/dL
- RALB (9 h): 3.4 g/dL
- TBIL (9 h): 0.1 mg/dL
- TC (9 h): 72.8 mg/dL
- TG (9 h): 52.2 mg/dL
- TP (9 h): 5.4 g/dL
- gamma-GTP (9 h): 1.6 IU/L
- TERMINAL_BW (24 h): 226.7 g
- APTT (24 h): 18.3 s
- Bas (24 h): 0.4%
- Eos (24 h): 1%
- Fbg (24 h): 218.6 mg/dL
- Hb (24 h): 13.2 g/dL
- Ht (24 h): 38%
- Lym (24 h): 77%
- MCH (24 h): 21.7 pg
- MCHC (24 h): 34.7%
- MCV (24 h): 62.4 fL
- Mono (24 h): 2.4%
- Neu (24 h): 18.6%
- PT (24 h): 12.5 s
- Plat (24 h): 126.2 x10_4/uL
- RBC (24 h): 609.6 x10_4/ul
- Ret (24 h): 7.7%
- WBC (24 h): 105.9 x10_2/uL
- KIDNEY_L (24 h): 1 g
- KIDNEY_R (24 h): 1 g
- KIDNEY_TOTAL (24 h): 2 g
- LIVER (24 h): 10.9 g
- A/G (24 h): 1.5
- ALP (24 h): 1024.2 IU/L
- ALT (24 h): 32.2 IU/L
- AST (24 h): 61.4 IU/L
- BUN (24 h): 16.4 mg/dL
- CRE (24 h): 0.4 mg/dL
- Ca (24 h): 10.7 mg/dL
- Cl (24 h): 102.2 meq/L
- DBIL (24 h): 0.1 mg/dL
- GLC (24 h): 215.6 mg/dL
- IP (24 h): 7.5 mg/dL
- K (24 h): 3.7 meq/L
- LDH (24 h): 189.6 IU/L
- Na (24 h): 141.2 meq/L
- PL (24 h): 146.2 mg/dL
- RALB (24 h): 3.3 g/dL
- TBIL (24 h): 0.2 mg/dL
- TC (24 h): 73.2 mg/dL
- TG (24 h): 97.8 mg/dL
- TP (24 h): 5.4 g/dL
- gamma-GTP (24 h): 1.4 IU/L
